Holding throughout (assay): Bliss excess, mean over the matrix (fraction); higher = more synergy
For assay [1], the system named is EW-13 (Ewing's Sarcoma). The method, boiled down:
(§1)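 After 24 hours at 37°C and 5% CO2 in 1536-well plates, cells in DMEM/F12 or RPMI plus 10% FBS received two-drug dose matrices for 72 hours. Viability came from CellTiter-Glo 2.0 luminescence and was scaled as inhibition, anchored at 0 by vehicle wells and at 1 by blank wells. Combination Emax is taken as the second-highest inhibition in the matrix, and Bliss excess as the observed combination effect less EA + EB − EA·EB, with EA and EB the single-agent effects.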

The test system of assay [2] is EMC-BAC-2 (Non-Small Cell Lung Carcinoma). The method, boiled down: as §1
The test system of assay [3] is KLE (Endometrial Carcinoma). The method, boiled down:
as §1

The test system of assay [4] is GOTO (Neuroblastoma). The method, boiled down: as §1
Assay [5] has as its system KU-19-19 (Bladder Carcinoma). Put shortly:
as §1

In assay [6] the test system is KINGS-1 (Low Grade Glioma). Put shortly: as §1
The test system of assay [7] is NCI-H2347 (Lung Adenocarcinoma). The method, boiled down: as §1
Assay [8] relates to SCC-3 (B-Cell Non-Hodgkin's Lymphoma). Put shortly:
as §1

Assay [9] deals with HuP-T3 (Pancreatic Carcinoma). Put shortly: as §1
For assay [10], the system named is KYSE-50 (Esophageal Squamous Cell Carcinoma). Put shortly:
as §1

Assay [11] deals with KYSE-150 (Esophageal Squamous Cell Carcinoma). Put shortly: as §1
Assay [12] relates to OVISE (Ovarian Carcinoma). Put shortly: as §1
The test system of assay [13] is EBC-1 (Squamous Cell Lung Carcinoma). The method, boiled down:
as §1

Assay [14] relates to NH-12 (Neuroblastoma). Put shortly: as §1

On to `CN(CCO)CC[C@H](CSc1ccccc1)Nc1ccc(S(=O)(=O)NC(=O)c2ccc(N3CCC([C@@H](O)c4ccccc4-c4ccc(Cl)cc4)CC3)cc2)cc1S(=O)(=O)C(F)(F)F` [AZD4320] + C=CCn1c(=O)c2cnc(Nc3ccc(N4CCN(C)CC4)cc3)nc2n1-c1cccc(C(C)(C)O)n1 [AZD1775] (first compound max 1 µM, partner max 1 µM), for which the Bliss excess in assay [1] is 0.0172; in assay [2], -0.0078; in [3] it was 0.0083; in assay [4] it was -0.0268; in [5], -0.018; in assay [6] it was 0.0509. Further, the Bliss excess in assay [7] was 0.034; in assay [8], 0.0329; in assay [9] it was -0.0081; in [10], -0.0682; in [11], -0.0634; in [12], 0.0598. For the same compound, the Bliss excess in [13] was 0.0187; in assay [14] it was -0.0149.

Regarding `Cc1c2c(nn1C)CSCc1cc(n(C)n1)CSc1cc(c3ccccc3c1)OCCCc1c(C(=O)O)n(C)c3c-2c(Cl)ccc13` [AZD5991] + CC1(C)CCC(CN2CCN(c3ccc(C(=O)NS(=O)(=O)c4ccc(NCC5CCOCC5)c([N+](=O)[O-])c4)c(Oc4cnc5[nH]ccc5c4)c3)CC2)=C(c2ccc(Cl)cc2)C1 [Venetoclax] (first compound max 1 µM, 7x7, partner max 1 µM), the Bliss excess in assay [1] is 0.0893; in [2], -0.0512; in assay [3] it was -0.0505; in assay [4], 0.0588; in assay [5], 0.0578; in assay [6] it was -0.0771. The Bliss excess was -0.0188 in [7]; 0.017 in assay [8]; -0.0358 in assay [9]; -0.0575 in assay [10]; -0.0324 in assay [11]; 0.0031 in [12]. Also, the Bliss excess in assay [13] is -0.0333; in assay [14], 0.139.

Regarding `COc1nnc2ccc(N3CCC(c4ccc(OCCN5CCN(C)C(=O)[C@H]5C)cc4)CC3)nn12` [AZD5153] + C[C@@H]1COCCN1C2=NC(=NC(=C2)C3(CC3)[S@](=N)(=O)C)C4=C5C=CNC5=NC=C4 [AZD6738] (first compound max 1 µM, 7x7, partner max 10 µM), the Bliss excess in assay [1] is 0.0682; in assay [2], 0.0722; in [3], -0.0287; in [4], -0.0422; in assay [5] it was -0.0645; in [6] it was -0.0124. Moreover, the Bliss excess in assay [7] was 0.0599; in [8], -0.0195; in assay [9], -0.0119; in [10], 0.0172; in [11] it was -0.0482; in assay [12] it was -0.0213. The Bliss excess in [13] is 0.0351; in [14], -0.0381.

As for `Cc1c2c(nn1C)CSCc1cc(n(C)n1)CSc1cc(c3ccccc3c1)OCCCc1c(C(=O)O)n(C)c3c-2c(Cl)ccc13` [AZD5991] + C[C@@H](Nc1cc(F)cc(F)c1)c1cc(C(=O)N(C)C)cc2c(=O)cc(N3CCOCC3)oc12 [AZD8186] (first compound max 1 µM, 7x7, partner max 3 µM), the Bliss excess in assay [1] is -0.0535; in [2], -0.0336; in [3] it was 0.0077; in assay [4], -0.0589; in assay [5] it was 0.0033; in assay [6] it was -0.0111. Moreover, the Bliss excess in assay [7] was 0.0251; in assay [8], -0.0036; in assay [9], -0.0622; in assay [10] it was 0.0319; in assay [11] it was -0.0127; in assay [12] it was 0.0069. The Bliss excess in assay [13] was 0.0298; in assay [14] it was 0.0311.

On to `CCc1c2c(nc3ccc(O)cc13)-c1cc3c(c(=O)n1C2)COC(=O)[C@]3(O)CC` [SN-38] + CN(C)CCCOc1ccc(-c2ccc3ncc4c(c3c2)n(C2CCOCC2)c(=O)n4C)cn1 [AZD0156] (first compound max 0.3 µM, 7x7, partner max 1 µM), for which the Bliss excess in assay [1] is -0.0589; in assay [2], 0.0414; in assay [3] it was -0.0034; in assay [4], -0.0221; in assay [5] it was 0.0033; in assay [6], -0.0185. Moreover, the Bliss excess in assay [7] was -0.0118; in assay [8], 0.0372; in assay [9], 0.0438; in [10] it was -0.0053; in assay [11] it was 0.1; in assay [12], -0.0355. Besides, the Bliss excess in [13] is -0.0488; in assay [14], -0.0954.

Regarding `CN(CCO)CC[C@H](CSc1ccccc1)Nc1ccc(S(=O)(=O)NC(=O)c2ccc(N3CCC([C@@H](O)c4ccccc4-c4ccc(Cl)cc4)CC3)cc2)cc1S(=O)(=O)C(F)(F)F` [AZD4320] + CCN(CCO)CCCOc1ccc2c(Nc3cc(CC(=O)Nc4cccc(F)c4)[nH]n3)ncnc2c1 [AZD2811] (first compound max 1 µM, 7x7, partner max 1 µM), the Bliss excess is -0.0076 in [1]; -0.0251 in assay [2]; -0.0207 in assay [3]; 0.0053 in assay [4]; 0.0207 in assay [5]; 0.006 in assay [6]. In addition, the Bliss excess was -0.0472 in [7]; -0.0063 in assay [8]; -0.0384 in assay [9]; -0.0211 in assay [10]; 0.007 in assay [11]; -0.0008 in [12]. The Bliss excess was 0.0178 in [13] and -0.049 in assay [14].

As for `C=CCn1c(=O)c2cnc(Nc3ccc(N4CCN(C)CC4)cc3)nc2n1-c1cccc(C(C)(C)O)n1` [AZD1775] + C[C@@H]1COCCN1C2=NC(=NC(=C2)C3(CC3)[S@](=N)(=O)C)C4=C5C=CNC5=NC=C4 [AZD6738] (first compound max 1 µM, partner max 10 µM), the Bliss excess in assay [1] is 0.0217; in assay [2], 0.0125; in assay [3], -0.0361; in [4], -0.0186; in assay [5], -0.0113; in assay [6], -0.0475. The Bliss excess in assay [7] was 0.0438; in assay [8] it was 0.0428; in [9] it was 0.0338; in [10], 0.0328; in assay [11], -0.029; in assay [12], -0.0399. Also, the Bliss excess was 0.0592 in assay [13] and 0.0262 in assay [14].

As to `CN(C)CCCOc1ccc(-c2ccc3ncc4c(c3c2)n(C2CCOCC2)c(=O)n4C)cn1` [AZD0156] + CCN(CCO)CCCOc1ccc2c(Nc3cc(CC(=O)Nc4cccc(F)c4)[nH]n3)ncnc2c1 [AZD2811] (first compound max 1 µM, 7x7, partner max 1 µM), the Bliss excess in assay [1] was 0.009; in assay [2], -0.0005; in assay [3] it was -0.0232; in assay [4] it was 0.129; in [5], 0.0358; in assay [6], -0.0173. Further, the Bliss excess in assay [7] was -0.0299; in [8] it was 0.112; in assay [9], -0.0379; in [10] it was -0.0128; in assay [11], -0.0382; in assay [12] it was -0.0314. In addition, the Bliss excess in assay [13] was -0.0117; in [14] it was -0.0263.

These data come from the supplement of paper PMC11061612.
